pEC50: −log10 of the molar value.
Experiments:
[1] = test system: Madin-Darby Canine Kidney (MDCK) cells; experiment: In vitro MDCK epithelial permeability assay (FITC-dextran, calcium switch); format: cell-based; details: low calcium medium, MDCK monolayers
From the text: In order to quantitatively measure the effects of transporter substrate AMPK activators on epithelial permeability in vitro, standard calcium switch protocols from the literature were adapted for use with Madin-Darby Canine Kidney (MDCK) cells grown on Corning Transwell inserts for use with fluorescein isothiocyanate-dextran, average molecular weight 4 kDa (FITC-dextran). FITC-dextran is a large, metabolically inert sugar molecule that is not readily transferrable across healthy epithelial barriers in vitro or in vivo. This compound has been tagged with a fluorophore to easily track its movement.
Briefly, MDCK cells were seeded onto Transwell inserts and grown according to manufacturer instructions until confluent. On the day of the experiment, a baseline reading was taken in standard growth media in which FITC-dextran was spiked into the apical chamber and the percent permeation of FITC-dextran from the apical to the basolateral chamber was measured. The inserts were then washed in low calcium medium (LCM) containing either vehicle or compound to remove residual FITC-dextran and calcium, and FITC-dextran was once again spiked into the apical chamber and the percent permeation in LCM was measured. Values were determined by reading fluorescence intensity on a standard plate reader and calculated by fitting back to 12-point standard curve in either growth media or LCM+vehicle, respectively. The fold induction of FITC-dextran permeation to the basolateral chamber when each well was transferred from baseline growth media to LCM was then calculated.

[2] = test system: MDCK cells; experiment: Effects on tight junction (TJ) architecture, ZO-1 staining; format: cell-based; details: 10 μM, low calcium medium (LCM)
Protocol: MDCK cells were grown to confluence on Transwell inserts in standard growth media. The inserts were then washed and incubated in low calcium medium (LCM) with vehicle or compound (10 μM) and fixed with paraformaldehyde. Fixed cells were stained for tight junction (TJ) component proteins using commercially available antibodies and visualized on a confocal microscope (Model DM6, Leica Microsystems). As shown by zona occludens-1 (ZO-1) staining, confluent epithelial cell monolayers in standard growth media display well-organized TJs that allow the cells to form a tight seal with their neighbors, while LCM induces autonomous internalization of TJ proteins into the cytoplasm and therefore compromises the barrier function of the epithelial monolayer.

[3] = biological target: T1, Recombinant AMPK α1/β1/γ1 complex (Homo sapiens (Human), UniProt Q13131+Q9Y478); experiment: In vitro pAMPK1 kinase activation assay (ADP-Glo, SAMS peptide); format: biochemical; details: for pEC50: AMPK α1/β1/γ1 pre-activated with CAMKK2, 12-point curve; for activation at 10 µM: relative to reference compound MK-8722
Protocol: Compound effect on AMPK enzyme activation was determined in a cell-free format with a 12-point concentration curve. The ADP-Glo detection system was used to determine phosphorylation of a SAMS peptide substrate. Recombinant AMPK α1/β1/γ1 complex was pre-activated by phosphorylation with CAMKK2 followed by incubated with compound for 15 minutes prior to the SAMS phosphorylation reaction. Activity curves and EC50 values were fitted by interpolation to an ATP:ADP standard curve as indicated by the ADP-Glo manufacturer using Prism software. Activity at 10 μM is reported relative to a reference compound, MK-8722 (Science 2017, 357(6350):507-511).

[4] = Pharmacokinetics (oral bioavailability, IV parameters); details: mouse, in vivo, C57BL/6 mice; for bioavailability: IV 1 mg/kg, PO 30 mg/kg; for half-life / Vd: IV administration 1 mg/kg; for Vd: read-out: volume of distribution
Protocol: Compounds were tested for pharmacokinetics in C57BL/6 mice. Compounds 2, 4, and A1 were dosed IV at 1 mg/kg as a formulation of 0.5 mg/mL in 5% DMSO+30% PEG400+65% water and PO at 30 mg/kg as a formulation of 6 mg/mL in 0.25% MC+5% Tween 80+0.02% SDS. Compound 1 was dosed IV at 1 mg/kg as a formulation of 0.50 mg/mL in 5% DMSO+30% PEG400+65% water and PO at 30 mg/kg as a formulation of 6 mg/mL in 0.5% MC+0.5% Tween 80.

[5] = biological target: T1, Recombinant AMPK α1/β1/γ1 complex; experiment: In vitro pAMPK1 kinase activation assay (ADP-Glo, SAMS peptide); format: biochemical; details: at 10 μM
[6] = test system: Mouse In Vivo Chemotherapy-Induced Intestinal Injury Model; experiment: Diarrhea in chemotherapy (5FU)-induced intestinal injury model; design: species or system BALB/c mice
Protocol: Compounds were formulated in vehicle (0.25% methyl cellulose, 5% Tween 80, 0.02% sodium dodecyl sulfate (SDS) in Hanks' Buffered Salt Solution with Ca2+ and Mg2+). On day 1, either saline or a 400 mg/kg dose of 5-fluorouracil (5FU) in saline was administered by intraperitoneal injection to BALB/c mice. Starting on day 2, vehicle or compound was administered once or twice a day by oral gavage. In some instances, compound was also administered once or twice a day by oral gavage from day −3 to day −1 (pre-5FU). From days 5 to 6 post-5FU, the animals were scored for diarrhea severity once a day. The diarrhea was scored 0-3 as follows: 0—normal consistency (black and solid), 1—soft (black and a bit lighter/yellow), 2—loosely shaped stool (yellowish and somewhat watery), 3—extreme diarrhea (very watery). Day 5 and day 6 diarrhea scores following administration of certain compounds were lower than vehicle control mice. […] In addition, Compound 1 was efficacious at doses as low as 3 mg/kg BID (6 mg/kg total daily dose).

T1 sequence (Q13131 whole entry): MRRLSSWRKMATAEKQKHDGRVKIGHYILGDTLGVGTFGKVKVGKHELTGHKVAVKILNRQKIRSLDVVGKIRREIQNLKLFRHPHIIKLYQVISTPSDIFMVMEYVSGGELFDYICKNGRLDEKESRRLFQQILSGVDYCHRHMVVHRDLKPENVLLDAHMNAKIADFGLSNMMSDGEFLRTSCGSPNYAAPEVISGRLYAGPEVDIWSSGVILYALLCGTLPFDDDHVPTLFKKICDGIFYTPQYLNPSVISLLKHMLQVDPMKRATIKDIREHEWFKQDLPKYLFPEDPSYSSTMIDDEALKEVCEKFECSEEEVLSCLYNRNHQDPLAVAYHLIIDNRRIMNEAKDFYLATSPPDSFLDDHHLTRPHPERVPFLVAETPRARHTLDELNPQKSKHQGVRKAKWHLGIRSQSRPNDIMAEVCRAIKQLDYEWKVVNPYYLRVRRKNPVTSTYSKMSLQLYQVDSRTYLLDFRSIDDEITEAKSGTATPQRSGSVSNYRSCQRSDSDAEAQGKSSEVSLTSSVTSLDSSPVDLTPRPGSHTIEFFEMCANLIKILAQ
T1 sequence (Q9Y478 whole entry): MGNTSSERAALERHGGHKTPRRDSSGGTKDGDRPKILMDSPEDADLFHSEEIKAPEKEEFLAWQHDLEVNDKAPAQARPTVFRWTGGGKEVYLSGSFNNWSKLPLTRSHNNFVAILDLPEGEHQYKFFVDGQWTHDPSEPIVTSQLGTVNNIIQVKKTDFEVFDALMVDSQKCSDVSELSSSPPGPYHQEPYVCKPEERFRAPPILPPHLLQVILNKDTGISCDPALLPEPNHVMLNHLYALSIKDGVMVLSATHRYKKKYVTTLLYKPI
T1 sequence (P54619 whole entry partner): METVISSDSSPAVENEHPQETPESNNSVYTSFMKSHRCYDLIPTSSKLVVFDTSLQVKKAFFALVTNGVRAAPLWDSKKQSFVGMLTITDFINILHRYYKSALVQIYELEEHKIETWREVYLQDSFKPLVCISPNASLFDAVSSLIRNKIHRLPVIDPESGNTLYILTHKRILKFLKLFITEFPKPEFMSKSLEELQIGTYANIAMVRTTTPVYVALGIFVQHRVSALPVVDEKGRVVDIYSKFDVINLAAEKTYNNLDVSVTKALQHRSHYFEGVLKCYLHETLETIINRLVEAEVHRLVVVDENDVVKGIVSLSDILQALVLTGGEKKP

Compound	reduction of FITC-dextran permeation relative to vehicle ([1]; 0.1 μM)	reduction of FITC-dextran permeation relative to vehicle ([1]; 1 μM)	TJ architecture by zona occludens-1 (ZO-1) staining [2]	pEC50 [3]	activation at 10 µM [3]	bioavailability [4]	half-life [4]	Vd [4]	activation compared with AMP [5]	Diarrhea Score % Change vs. Vehicle ([6]; 30 mg/kg QD, Day 5)	Diarrhea Score ([6]; 30 mg/kg QD, Day 5, score 0-3)	Diarrhea Score % Change vs. Vehicle ([6]; 30 mg/kg QD, Day 6)	Diarrhea Score ([6]; 30 mg/kg QD, Day 6, score 0-3)	further results
O=C(O)CSc1nc2cc(-c3ccc(-c4ccccc4O)cc3)c(Cl)cc2[nH]1 [Compound A1]	40%	61%	prevented the loss of TJ architecture	6.70	48%	< 1%	4.8 h	2.4 L/kg	activation greater than that displayed by AMP	+38%	1.38	−29%	1.25	
O=C(O)CSc1nc2nc(-c3ccc(-c4ccccc4O)cc3)c(Cl)cc2[nH]1 [Compound 1, 2-((6-chloro-5-(2′-hydroxy-[1,1′-biphenyl]-4-yl)-1H-imidazo[4,5-b]pyridin-2-yl)thio)acetic Acid]	48%	62%	prevented the loss of TJ architecture	8.85	35%	< 1%	1.9 h	0.7 L/kg	activation greater than that displayed by AMP	−30%	0.63	−58%	0.75	potency relative to Compound A1 [3]: > 100 fold; Diarrhea Score % Change vs. Vehicle ([6]; 3 mg/kg BID, Day 5): −17%; Diarrhea Score ([6]; 3 mg/kg BID, Day 5, score 0-3): 0.50; Diarrhea Score % Change vs. Vehicle ([6]; 3 mg/kg BID, Day 6): −56%; Diarrhea Score ([6]; 3 mg/kg BID, Day 6, score 0-3): 0.75; Diarrhea Score % Change vs. Vehicle ([6]; 10 mg/kg BID, Day 5): −28%; Diarrhea Score ([6]; 10 mg/kg BID, Day 5, score 0-3): 0.43; Diarrhea Score % Change vs. Vehicle ([6]; 10 mg/kg BID, Day 6): −71%; Diarrhea Score ([6]; 10 mg/kg BID, Day 6, score 0-3): 0.50; Diarrhea Score % Change vs. Vehicle ([6]; 30 mg/kg BID, Day 5): −100%; Diarrhea Score ([6]; 30 mg/kg BID, Day 5, score 0-3): 0; Diarrhea Score % Change vs. Vehicle ([6]; 30 mg/kg BID, Day 6): −66%; Diarrhea Score ([6]; 30 mg/kg BID, Day 6, score 0-3): 0.57; Diarrhea Score % Change vs. Vehicle ([6]; 100 mg/kg BID, Day 5): −63%; Diarrhea Score ([6]; 100 mg/kg BID, Day 5, score 0-3): 0.38; Diarrhea Score % Change vs. Vehicle ([6]; 100 mg/kg BID, Day 6): −79%; Diarrhea Score ([6]; 100 mg/kg BID, Day 6, score 0-3): 0.38
